Source: paper PMC11722285, “Exploring the Potential of Malvidin and Echiodinin as Probable Antileishmanial Agents Through In Silico Analysis and In Vitro Efficacy” (Molecules, 2025)
Like-named read-outs stand apart in the source and are kept apart here.

Columns and labels:
Type in all cases: cell-based
[1] = tested on: L. amazonensis stationary promastigotes; assay: In vitro antileishmanial activity, stationary promastigotes (MTT); conditions: for IC50: 48 h, stationary promastigotes, mean ± SD, read-out: IC50 (µM) Stationary Promastigotes L. amazonensis; for Selectivity Index (SI) Stationary Promastigotes L. amazonensis: ratio between CC50 (macrophages) and IC50
Procedure: (§1) L. amazonensis (IFLA/BR/1967/PH-8), L. braziliensis (MHOM/BR/1975/M2903), and L. infantum (MHOM/BR/1970/BH46) were used as parasites. Stationary promastigotes were grown at a 24 °C in complete Schneider’s medium (Sigma-Aldrich, St. Louis, MO, USA), which was composed of medium plus 20% (v/v) heat-inactivated fetal bovine serum (FBS; Sigma-Aldrich, USA) and 20 mM L-glutamine with a pH of 7.4 [139]. To obtain the axenic amastigotes, 10^9 stationary promastigotes were washed three times in sterile phosphate-buffered saline (PBS 1X and incubated in 5 mL FBS for 48 h (L. amazonensis and L. braziliensis) and 72 h (L. infantum), respectively, at 37 °C. Parasites were washed in cold PBS 1x, and their morphology was evaluated after staining using the Giemsa method in an optical microscope, as previously described.
(§2) AmpB (0 to 10.8 µM; Sigma-Aldrich, USA) was used as control. Cell viability was assessed through 3-(4.5-dimethylthiazol-2-yl)-2.5-diphenyl tetrazolium bromide (Sigma-Aldrich, USA) method. Optical density (OD) values were measured in a microplate spectrophotometer (Molecular Devices, Spectra Max Plus, San Jose, CA, USA) at 570 nm. IC50 values were calculated by sigmoidal regression of dose–response curves in Microsoft Excel software (version 10.0). Two-tailed Student’s t-tests (p < 0.05) were used to compare IC50 values between malvidin and echioidinin, assessing significant differences in inhibitory activity.

[2] = tested on: L. infantum stationary promastigotes; assay: as above; conditions: for IC50: Leishmania infantum, stationary promastigotes, 48 h, mean ± SD, read-out: IC50 (µM) Stationary Promastigotes L. infantum; for Selectivity Index (SI) Stationary Promastigotes L. infantum: ratio between CC50 (macrophages) and IC50
Procedure: as §1, §2

[3] = tested on: L. braziliensis stationary promastigotes; assay: as above; conditions: for IC50: Leishmania braziliensis, stationary promastigotes, 48 h, mean ± SD, read-out: IC50 (µM) Stationary Promastigotes L. braziliensis; for Selectivity Index (SI) Stationary Promastigotes L. braziliensis: ratio between CC50 (macrophages) and IC50
Procedure: as §1, §2

[4] = tested on: L. braziliensis axenic amastigotes; assay: In vitro antileishmanial activity, axenic amastigotes (MTT); conditions: for IC50: Leishmania braziliensis, axenic amastigotes, 48 h, mean ± SD, read-out: IC50 (µM) Axenic amastigotes L. braziliensis; for Selectivity Index (SI) Axenic amastigotes L. braziliensis: ratio between CC50 (macrophages) and IC50
Procedure: as §1, §2

[5] = tested on: L. amazonensis axenic amastigotes; assay: as above; conditions: for IC50: 48 h, axenic amastigotes, mean ± SD, read-out: IC50 (µM) Axenic amastigotes L. amazonensis; for Selectivity Index (SI) Axenic amastigotes L. amazonensis: ratio between CC50 (macrophages) and IC50
Procedure: as §1, §2

[6] = tested on: L. infantum axenic amastigotes; assay: as above; conditions: for IC50: Leishmania infantum, axenic amastigotes, 48 h, mean ± SD, read-out: IC50 (µM) Axenic amastigotes L. infantum; for Selectivity Index (SI) Axenic amastigotes L. infantum: ratio between CC50 (macrophages) and IC50
Procedure: as §1, §2

[7] = tested on: L. amazonensis-infected murine macrophages; assay: Treatment of infected macrophages; conditions: 48 h
Procedure: (§3) To evaluate the efficacy of malvidin or echioidinin for treating infected macrophages, murine cells (5 × 10^5) were plated on round glass coverslips in 24-well plates in RPMI 1640 medium supplemented with 20% (v/v) FBS and 20 mM L-glutamine at a pH of 7.4 and incubated for 24 h at 37 °C in 5% CO2. Stationary promastigotes were added to the wells at a ratio of 10 parasites per macrophage, and cultures were incubated further for 48 h at 37 °C for 5% CO2. Free parasites were removed by extensive washing with RPMI 1640 medium, and infected macrophages were treated with malvidin (30.18, 60.37, and 120.74 µM), echioidinin (35.18, 70.36, and 140.72 µM), or AmpB (2.70 and 5.41 µM) for 48 h at […] in 5% CO2. After fixation with 4% paraformaldehyde, cells were washed and stained with Giemsa, and the infection percentage, the number of amastigotes per infected macrophage, and the reduction in the infection percentage were determined by counting 200 cells in triplicate, using an optical microscope.

[8] = tested on: L. infantum-infected murine macrophages; assay: Treatment of infected macrophages; conditions: 48 h
Procedure: as §3

[9] = tested on: L. braziliensis-infected murine macrophages; assay: Treatment of infected macrophages; conditions: 48 h
Procedure: as §3

O+ human red blood cells = assay: Hemolytic activity; conditions: 1 h
Procedure: (§4) Cytotoxicity was evaluated ex vivo in murine macrophages and human red blood cells, for which concentrations inhibiting 50% of macrophages (CC50) and red blood cells (RBC50) were determined. Briefly, murine cells (5 × 10^5) or a 5% human red blood cells suspension were incubated in the presence of malvidin (0 to 301.84 µM) or echioidinin (0 to 356.76 µM) AmpB (0 to 10.82 µM) was used as control. Cells were incubated in RPMI 1640 medium for 48 h (murine macrophages) or 1 h (red blood cells) at 37 °C in 5% CO2. Macrophage viability was assessed using the MTT method. The red blood cell suspension was centrifuged at 1000× g for 10 min at 4 °C, after which the percentage of cell lysis was evaluated spectrophotometrically at 570 nm. The hemolysis was determined by replacing the natural products with an equal volume of phosphate-buffered saline with a pH of 7.4 (PBS—negative control) or distilled water (positive control). CC50 and RBC50 values were calculated by sigmoidal regression of dose–response curves in Microsoft Excel software (version 10.0). SI was calculated as the ratio between CC50 and IC50 values.

[10] = Cytotoxicity assay in macrophages (MTT); conditions: mouse, murine macrophages, mean ± SD
Procedure: as §4, with “Briefly, murine cells (5 × 10^5) or a 5% human red blood cells suspension were incubated in the presence of malvidin (0 to 301.84 µM) or echioidinin (0 to 356.76 µM) AmpB (0 to 10.82 µM) was used as control.” left out

With `C[C@@H]1[C@H](O)[C@@H](C)/C=C/C=C/C=C/C=C/C=C/C=C/C=C/[C@H](O[C@@H]2O[C@H](C)[C@@H](O)[C@H](N)[C@@H]2O)C[C@@H]2O[C@](O)(C[C@@H](O)C[C@@H](O)[C@H](O)CC[C@@H](O)C[C@@H](O)CC(=O)O[C@H]1C)C[C@H](O)[C@H]2C(=O)O` [AmpB, amphotericin B, reference compound] the IC50 ([1]; Leishmania amazonensis) was 0.06 ± 0.01 µM, the “Selectivity Index (SI) Stationary Promastigotes L. amazonensis” value [1] was 12.60 and the IC50 [1] was 0.08 ± 0.02 µM. The IC50 [2] was 0.06 ± 0.01 µM, the “Selectivity Index (SI) Stationary Promastigotes L. infantum” value [2] was 14.70 and the IC50 [3] was 0.09 ± 0.03 µM. For the same compound, the “Selectivity Index (SI) Stationary Promastigotes L. braziliensis” value [3] was 11.00, the IC50 [4] was 0.1 ± 0.03 µM and the “Selectivity Index (SI) Axenic amastigotes L. braziliensis” value [4] was 9.80. The IC50 ([5]; Leishmania amazonensis) was 0.1 ± 0.03 µM, the IC50 [5] was 0.09 ± 0.02 µM and the “Selectivity Index (SI) Axenic amastigotes L. amazonensis” value [5] was 11.00. The IC50 [6] was 0.08 ± 0.02 µM, the “Selectivity Index (SI) Axenic amastigotes L. infantum” value [6] was 12.60 and the “Infection After Treatment (%)” value ([7]; 2.71 µM) was 34.30%. The “Infectiveness Reduction (%)” value ([7]; 2.71 µM) was 62.84%, the “Number of Amastigotes per Macrophage” value ([7]; 2.71 µM) was 2.60 and the “Infection After Treatment (%)” value ([7]; 5.41 µM) was 24.20%. For the same compound, the “Infectiveness Reduction (%)” value ([7]; 5.41 µM) was 73.78%, the “Number of Amastigotes per Macrophage” value ([7]; 5.41 µM) was 2.80 and the “Infection After Treatment (%)” value ([8]; 2.71 µM) was 28.70%. For the same compound, the “Infectiveness Reduction (%)” value ([8]; 2.71 µM) was 61.48%, the “Number of Amastigotes per Macrophage” value ([8]; 2.71 µM) was 3.00 and the “Infection After Treatment (%)” value ([8]; 5.41 µM) was 19.80%. For the same compound, the “Infectiveness Reduction (%)” value ([8]; 5.41 µM) was 73.42%, the “Number of Amastigotes per Macrophage” value ([8]; 5.41 µM) was 2.50 and the “Infection After Treatment (%)” value ([9]; 2.71 µM) was 24.40%. The “Infectiveness Reduction (%)” value ([9]; 2.71 µM) was 64.48%, the “Number of Amastigotes per Macrophage” value ([9]; 2.71 µM) was 2.60 and the “Infection After Treatment (%)” value ([9]; 5.41 µM) was 16.50%. The “Infectiveness Reduction (%)” value ([9]; 5.41 µM) was 75.98%, the “Number of Amastigotes per Macrophage” value ([9]; 5.41 µM) was 2.40 and the “RBC50” value (O+ human red blood cells; human) was 14.28 ± 1 µM.

For `COc1cc(O)c2c(=O)cc(-c3ccccc3O)oc2c1` [Echioidinin, echioidinin], the IC50 ([1]; Leishmania amazonensis) was 273 ± 29 µM, the “Selectivity Index (SI) Stationary Promastigotes L. amazonensis” value [1] was 10.80 and the IC50 [2] was 213 ± 16 µM. For the same compound, the “Selectivity Index (SI) Stationary Promastigotes L. infantum” value [2] was 14.00, the IC50 [3] was 251 ± 22 µM and the “Selectivity Index (SI) Stationary Promastigotes L. braziliensis” value [3] was 12.10. For the same compound, the CC50 at 48 h [10] was 3010 ± 114 µM, the IC50 [4] was 293 ± 20 µM and the “Selectivity Index (SI) Axenic amastigotes L. braziliensis” value [4] was 10.30. For the same compound, the IC50 ([5]; Leishmania amazonensis) was 336 ± 19 µM, the “Selectivity Index (SI) Axenic amastigotes L. amazonensis” value [5] was 8.90 and the IC50 [6] was 262 ± 17 µM. For the same compound, the “Selectivity Index (SI) Axenic amastigotes L. infantum” value [6] was 11.60, the “Infection After Treatment (%)” value ([7]; 35.18 µM) was 80.20% and the “Infectiveness Reduction (%)” value ([7]; 35.18 µM) was 13.11%. For the same compound, the “Number of Amastigotes per Macrophage” value ([7]; 35.18 µM) was 5.40, the “Infection After Treatment (%)” value ([7]; 70.36 µM) was 71.80% and the “Infectiveness Reduction (%)” value ([7]; 70.36 µM) was 22.21%. For the same compound, the “Number of Amastigotes per Macrophage” value ([7]; 70.36 µM) was 3.70, the “Infection After Treatment (%)” value ([7]; 140.72 µM) was 63.40% and the “Infectiveness Reduction (%)” value ([7]; 140.72 µM) was 31.31%. The “Number of Amastigotes per Macrophage” value ([7]; 140.72 µM) was 6.30, the “Infection After Treatment (%)” value ([8]; 35.18 µM) was 65.50% and the “Infectiveness Reduction (%)” value ([8]; 35.18 µM) was 12.08%. For the same compound, the “Number of Amastigotes per Macrophage” value ([8]; 35.18 µM) was 4.80, the “Infection After Treatment (%)” value ([8]; 70.36 µM) was 58.70% and the “Infectiveness Reduction (%)” value ([8]; 70.36 µM) was 21.21%. The “Number of Amastigotes per Macrophage” value ([8]; 70.36 µM) was 2.80, the “Infection After Treatment (%)” value ([8]; 140.72 µM) was 50.70% and the “Infectiveness Reduction (%)” value ([8]; 140.72 µM) was 31.95%. The “Number of Amastigotes per Macrophage” value ([8]; 140.72 µM) was 4.20, the “Infection After Treatment (%)” value ([9]; 35.18 µM) was 56.50% and the “Infectiveness Reduction (%)” value ([9]; 35.18 µM) was 17.76%. The “Number of Amastigotes per Macrophage” value ([9]; 35.18 µM) was 6.40, the “Infection After Treatment (%)” value ([9]; 70.36 µM) was 50.80% and the “Infectiveness Reduction (%)” value ([9]; 70.36 µM) was 26.06%. For the same compound, the “Number of Amastigotes per Macrophage” value ([9]; 70.36 µM) was 3.70, the “Infection After Treatment (%)” value ([9]; 140.72 µM) was 43.20% and the “Infectiveness Reduction (%)” value ([9]; 140.72 µM) was 37.12%. For the same compound, the “Number of Amastigotes per Macrophage” value ([9]; 140.72 µM) was 3.70 and the “RBC50” value (O+ human red blood cells; lysis of 50% of O+ human red blood cells, mean ± SD) was 3400.76 ± 78 µM.
